The assay addresses T1, human chemokine receptor CCR3 (Homo sapiens, UniProt P51677).
T1 construct: expressed in transfected cells; host or cells: K562 cell line (hCCR3-C1 cells), membrane preparation
T1 sequence (P51677 1-355): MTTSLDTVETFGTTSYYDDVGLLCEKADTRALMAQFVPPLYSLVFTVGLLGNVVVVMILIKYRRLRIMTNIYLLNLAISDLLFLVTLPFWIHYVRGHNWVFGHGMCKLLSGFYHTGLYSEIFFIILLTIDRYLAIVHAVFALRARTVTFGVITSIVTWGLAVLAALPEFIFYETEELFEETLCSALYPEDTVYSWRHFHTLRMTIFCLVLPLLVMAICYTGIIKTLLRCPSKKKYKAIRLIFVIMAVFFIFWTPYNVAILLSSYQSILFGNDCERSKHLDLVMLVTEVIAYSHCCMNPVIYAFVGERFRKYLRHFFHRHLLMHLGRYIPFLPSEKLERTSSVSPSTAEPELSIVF
The assay is described as follows: CCR3 receptor binding assay (SPA, 125I-eotaxin-1 displacement, hCCR3-C1 K562 cell membranes). As to conditions: human Eotaxin-1 at human CCR3-Rezeptor; for inhibition at 1 µM: 1 μM test compound, read-out: CCR3 % inh @ 1 μM; for Ki: dose range 0.1 to 10000 nM. In short, it runs like this: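 SPA displacement of recombinant human 125I-eotaxin-1 (30.000 dpm per well) from membranes of CCR3-transfected K562 cells (0.5-10 μg protein/well) on WGA beads. Buffer was 25 mM HEPES, 25 mM MgCl2, 1 mM CaCl2, 0.1% BSA; incubation 2 h at room temperature. Specific binding was total minus NSB (unlabelled eotaxin-1), giving % inhibition and Ki.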

The structures appear in SMILES notation.

Consider four compounds from patent US8653075B2, “Therapeutic methods employing substituted piperidines which are CCR3 antagonists” (Boehringer Ingelheim International GmbH, priority 2009, dated 2014).

In general, Ki refers to the equilibrium dissociation constant of an inhibitor or competing ligand from its target. A higher Ki goes with weaker binding.

Turning to `Cc1cc(CN2CCC(N3C(=O)CC[C@@H]3C(=O)Nc3cccc(C(=O)NCC(C)C)c3)CC2)ccc1Cl` [Example 137], the inhibition at 1 µM was 101% and the Ki is 4 nM.
With `COC(=O)c1cc(NC(=O)[C@H]2CCC(=O)N2C2CCN(Cc3ccc(Cl)c(C)c3)CC2)cc(C(=O)N(C)C)c1` [Example 108], the inhibition at 1 µM was 98% and the Ki was determined as 4 nM.
As for `Cc1cc(CN2C3CCC2CC(N2C(=O)CC[C@@H]2C(=O)Nc2cccc(N(CC(=O)N(C)C)S(=O)(=O)C4CC4)c2)C3)ccc1Cl` (some centres unmarked) [Example 78], the inhibition at 1 µM came to 94% and affinity was put at a Ki of 50 nM.
Regarding `Cc1cc(CN2CCC(N3C(=O)CC[C@@H]3C(=O)Nc3cc(C(=O)N(C)C)cc(C(C)(C)C)c3)CC2)ccc1Cl` [Example 171], the inhibition at 1 µM was 99% and the Ki is 5 nM.
